# Laboratory results as given in US8389680B2, “Treatment of Aspergillus infections with alpha thymosin peptides” (SciClone Pharmaceuticals, Inc., priority 2003, dated 2013).
# “Also recorded” adds a separate entry of the source.
# What was measured:
# [1] = system: MyD88-dependent pathway; assay: Cytokine production by DCs of MyD88-deficient mice; format: cell-based
# Experimental: (§1) Female, 8- to 10-weeks old, BALB/c and C57BL6 mice were from Charles River. NOD/SCID were from The Jackson. Breeding pairs of homozygous TLR2-, TLR9- and MyD88-deficient mice, raised on C57BL6 background, and of homozygous IFN-gamma- and IL-4-deficient mice, raised on BALB/c background, were bred under specific-pathogen free conditions. For phagocytosis, DCs were pre-exposed to 100 ng/ml TA1 for 60 minutes and subsequently incubated at 37° C. with Aspergillus conidia for an additional 60 minutes. The percentage of internalization was calculated and photographs were taken. In assessing functional maturation and cytokine determination, purified DCs were resuspended in Iscove's medium (with no serum but with polymixin B, to avoid non-specific activation by serum components and endotoxin) and pulsed with 100 ng/ml TA1 for 24 hours either alone or together with TLR ligands or unopsonized Aspergillus conidia. The levels of TNF-alpha, IL-10, IL-12 p70, IFN-alpha and IL-8 in culture supernatants were determined by Kit ELISAs. The detection limits (pg/ml) of the assays were <3 (human) and <32 (murine) for TNF-alpha, <12 (murine) and <5 (human) for IL-10, <16 (murine) and <3 (human) for IL-12 p70 and <25 (human) IL-8. For human IFN-alpha <3 ng/ml. For enumeration of cytokine-producing cells, an ELISPOT assay was used on purified CD4^+ T cells and DCs from lungs.
# [2] = system: A. fumigatus; assay: BMT mice with invasive aspergillosis: survival, fungal growth in lungs (chitin assay), lung histology; format: in vivo
# Excerpt: For infection with A. fumigatus, mice were intranasally injected for 3 consecutive days with a suspension of 2×10^7 conidia/20 microliter saline. For the quantification of fungal growth in the lungs, the chitin assay was used. The chitin content was expressed as micrograms of glucosamine per organ. The glucosamine content of lungs from uninfected mice was used as a negative control ranging between 0.80 and 2.25 microgram glucosamine/organ. For histological analysis, lungs were excised and immediately fixed in formalin. Sections (3 to 4 micron) of paraffin-embedded tissues were stained with the periodic acid-Schiff procedure. Thymosin alpha 1 (TA1) and the scrambled polypeptide are as purified sterile lyophilized acetylated polypeptides with endotoxin levels less than 0.03 pg/ml, by a standard limulus lysate assay. The sequences were as follows: Ac-[…]O (Thymosin alpha 1, SEQ ID NO.: 1) and Ac-[…]OH ([…]). Their lyophilized powders were reconstituted in sterile water.
# The treatments were as follows; in BMT-mice, TA1, at different doses administered intraperitoneally, sthymosin alpha 1, 400 microgram/kg administered intraperitoneally or human recombinant G-CSF 250 microgram/kg administered intravenously, were given daily beginning the day of the BM infusion, in concomitance with the infection and continuing for an additional 3 days. Amphotericin B was given daily for 3 days in concomitance with the infection, at a dose of 4000 microgram/kg, administered intraperitoneally. This dose would cure IA in cyclophosphamide-treated mice. Cyclophosphamide, 150 mg/kg administered intraperitoneally, was given a day before the infection. In cyclophosphamide-treated mice, 400 microgram/kg TA1 was given intraperitoneally for 5 consecutive days beginning the day of the infection.
# C57BL6 mice were exposed to a lethal dose of 9 Gy and infused with T cell-depleted donor cells from BALB/c mice.
# [3] = system: lung DCs; assay: Activation of murine lung DCs: phagocytosis of Aspergillus conidia, costimulatory antigen expression, cytokine production; format: cell-based
# Experimental: as §1, with “For mature PDCs, immature DCs were cultured with the trimeric human CD40 ligand as above and 10 ng/ml IL-3. […] The expression of HLA Class II, CD80 and CD86 was high in both immature and mature DCs. Murine lung CD 11c^+ DCs (between 5” for “Female, 8-”, “7% positive for CD8alpha” for “10-weeks old, BALB/c”, “between 30 to 35% positive for Gr-1)” for “C57BL6 mice”, “isolated by magnetic cell sorting.” for “from Charles River. NOD/SCID were from The Jackson. Breeding pairs of homozygous TLR2-, TLR9- and MyD88-deficient mice, raised on C57BL6 background, and of homozygous IFN-gamma- and IL-4-deficient mice, raised on BALB/c background, were bred under specific-pathogen free conditions.”, “conidia. Cell surface phenotype was assessed by reacting samples with FITC- or PE-conjugated rat anti-mouse antibodies. Unrelated hisotype matched antibodies were used as control.” for “conidia.”
# [4] = mice treated with both agents (TA1 and amphotericin B)
# [5] = combined exposure to Aspergillus conidia and TA1
substance,measurement,setting,value
"Ac-Ser-Asp-Ala-Ala-Val-Asp-Thr-Ser-Ser-Glu-Ile-Thr-Thr-Lys-Asp-Leu-Lys-Glu-Lys-Lys-Glu-Val-Glu-Glu-Ala-Glu-Asn-O (Ac-SDAAVDTSSEITTKDLKEKKEVEEAEN-OH) [TA1, naturally occurring thymic peptide]",IL-10 production,[1],dramatically ablated
same,IL-12 p70 production,[1]; TA1 and conidia,dramatically ablated
same,protection compared with amphotericin B,"[2]; 200 and 400 microgram/kg TA1, amphotericin B 4000 microgram/kg",superior to that of amphotericin B
same,survival (full protection),[2]; 200 microgram/kg TA1,> 60 days
same,survival (full protection),[2]; 400 microgram/kg TA1,> 60 days
same,fungal growth in the lungs,[2]; BMT mice with IA,dose-responsive reduction; also recorded: reduced fungal growth
same,survival,[2]; BMT mice with IA,increased survival
same,"effect on protection, dose relation","[2]; BMT mice with IA, different doses",dose-dependent
same,cure of BMT mice with IA,"[2]; intraperitoneally, daily",complete cure; also recorded: able to cure
same,lung pathology,"[2]; lung sections, periodic acid-Schiff",decreases lung pathology
same,effect on therapeutic efficacy of amphotericin B,[2]; mice treated with both agents,increases the therapeutic efficacy of amphotericin B
same,fungal burden,[2]; [4],decreased fungal burden
same,survival,[2]; [4],increased survival
same,"activation of lung DCs for phagocytosis of unopsonized conidia, costimulatory antigen expression and cytokine production",[3]; 100 ng/ml,activates
same,"expression of MHC Class II antigens, CD86 and CD40 molecules",[3]; [5],remarkably increased
same,frequency of IL-12 p70-producing DCs,[3]; [5],remarkably increased
same,frequency of IL-12 p70-producing DCs,[3]; thymosin alone,also increased
